Measurements from ChEMBL document CHEMBL3132820, “Dinaphthonaphthyridines a class of novel molecules with potent antioxidant and anticancer activity” (Medchemcomm, 2013).
In brackets after ≈: the same amount, converted by molar mass.

Key:
[1] = tested on: HeLa; assay: Cytotoxicity against human HeLa cells after 48 hrs by MTT assay; type: functional, cell-based
[2] = Antioxidant activity assessed as hydroxyl radical scavenging activity after 15 mins by spectrophotometry; type: functional
[3] = tested on: AGS; assay: Cytotoxicity against human AGS cells after 48 hrs by MTT assay; type: functional, cell-based
[4] = tested on: Radical scavenging activity; assay: Antioxidant activity assessed as DPPH radical scavenging activity; type: functional
[5] = Antioxidant activity assessed as superoxide anion radical scavenging activity after 90 seconds by formazan method; type: functional
[6] = tested on: HCT-116; assay: Cytotoxicity against human HCT116 cells after 48 hrs by MTT assay; type: functional, cell-based; settings: HCT-116, 48 h
[7] = Antioxidant activity assessed as ABTS radical scavenging activity after 30 mins by spectrophotometry; type: functional

SMILES	IC50 [1]	IC50 [2]	IC50 [3]	IC50 [4]	IC50 [5]	IC50 [6]	IC50 [7]
Cc1cc(Nc2cccc3ccccc23)c2ccc3ccccc3c2n1	3.45 µM	62.3 µg/mL (≈ 186 µM)	4.01 µM	18.2 µg/mL (≈ 54.4 µM)	186.2 µg/mL (≈ 557 µM)	5.61 µM	115.2 µg/mL (≈ 344 µM)
Cc1nc2c3ccccc3ccc2c2nc3c(ccc4ccccc43)c(C)c12	> 80 µM	89.6 µg/mL (≈ 250 µM)	> 80 µM	46.6 µg/mL (≈ 130 µM)	194.5 µg/mL (≈ 543 µM)	> 80 µM	128.5 µg/mL (≈ 358 µM)
Cc1nc2c3ccccc3ccc2c2nc3c(ccc4ccccc43)c(-c3ccccc3)c12	> 80 µM	84.6 µg/mL (≈ 201 µM)	> 80 µM	31.3 µg/mL (≈ 74.4 µM)	188.1 µg/mL (≈ 447 µM)	> 80 µM	164.3 µg/mL (≈ 391 µM)
Cc1ccc(-c2c3ccc4ccccc4c3nc3c2c(C)nc2c4ccccc4ccc32)cc1	72.2 µM	68.7 µg/mL (≈ 158 µM)	> 80 µM	24.5 µg/mL (≈ 56.4 µM)	191.5 µg/mL (≈ 441 µM)	67 µM	123.3 µg/mL (≈ 284 µM)
Cc1nc2c3ccccc3ccc2c2nc3c(ccc4ccccc43)c(-c3ccccc3Cl)c12	> 80 µM	74.6 µg/mL (≈ 164 µM)	52.5 µM	43 µg/mL (≈ 94.5 µM)	170 µg/mL (≈ 374 µM)	48.2 µM	118.1 µg/mL (≈ 260 µM)
COc1ccc(-c2c3ccc4ccccc4c3nc3c2c(C)nc2c4ccccc4ccc32)cc1	45.9 µM	82.3 µg/mL (≈ 183 µM)	66.4 µM	27.5 µg/mL (≈ 61 µM)	176.4 µg/mL (≈ 392 µM)	> 80 µM	132.5 µg/mL (≈ 294 µM)
Cc1nc2c3ccccc3ccc2c2nc3c(ccc4ccccc43)c(-c3cccc([N+](=O)[O-])c3)c12	50.7 µM	54.2 µg/mL (≈ 116 µM)	25.5 µM	33.3 µg/mL (≈ 71.5 µM)	157.3 µg/mL (≈ 338 µM)	13.2 µM	116.8 µg/mL (≈ 251 µM)
Cc1nc2c3ccccc3ccc2c2nc3c(ccc4ccccc43)c(-c3ccc(O)cc3)c12	4.63 µM	44.1 µg/mL (≈ 101 µM)	14.2 µM	10.4 µg/mL (≈ 23.8 µM)	99 µg/mL (≈ 227 µM)	3.19 µM	86.4 µg/mL (≈ 198 µM)
Cc1nc2c3ccccc3ccc2c2nc3c(ccc4ccccc43)c(-c3ccccc3N)c12	16.2 µM	45.6 µg/mL (≈ 105 µM)	12.1 µM	17.5 µg/mL (≈ 40.2 µM)	124.6 µg/mL (≈ 286 µM)	4.76 µM	95.4 µg/mL (≈ 219 µM)
Cc1nc2c3ccccc3ccc2c2nc3c(ccc4ccccc43)c(-c3cc([N+](=O)[O-])ccc3N)c12	5.77 µM	43.3 µg/mL (≈ 90.1 µM)	17.8 µM	11.3 µg/mL (≈ 23.5 µM)	110.1 µg/mL (≈ 229 µM)	6.01 µM	93.1 µg/mL (≈ 194 µM)
Cc1nc2c3ccccc3ccc2c2nc3c(ccc4ccccc43)c(-c3ccccc3S)c12	3.19 µM	49.6 µg/mL (≈ 110 µM)	4.07 µM	10.2 µg/mL (≈ 22.5 µM)	158.3 µg/mL (≈ 350 µM)	1.42 µM	89 µg/mL (≈ 197 µM)
Cc1nc2c3ccccc3ccc2c2nc3c(ccc4ccccc43)c(-c3cccc4ccccc34)c12	14.9 µM	64.3 µg/mL (≈ 137 µM)	12.1 µM	26.1 µg/mL (≈ 55.5 µM)	179.3 µg/mL (≈ 381 µM)	20.8 µM	110.5 µg/mL (≈ 235 µM)
Cc1nc2c3ccccc3ccc2c2nc3c(ccc4ccccc43)c(-c3cccnc3)c12	3.86 µM	63.6 µg/mL (≈ 151 µM)	3.96 µM	16.9 µg/mL (≈ 40.1 µM)	156.1 µg/mL (≈ 370 µM)	34.2 µM	98.2 µg/mL (≈ 233 µM)
Cc1nc2c3ccccc3ccc2c2nc3c(ccc4ccccc43)c(-c3cc(O)nc4ccccc34)c12	4.88 µM	44.8 µg/mL (≈ 91.9 µM)	15.8 µM	14.1 µg/mL (≈ 28.9 µM)	147.7 µg/mL (≈ 303 µM)	4.63 µM	92.1 µg/mL (≈ 189 µM)
Cc1nc2c3ccccc3ccc2c2nc3c(ccc4ccccc43)c(-c3nccnc3N)c12	1.21 µM	47.8 µg/mL (≈ 109 µM)	2.26 µM	12 µg/mL (≈ 27.4 µM)	133.9 µg/mL (≈ 306 µM)	3.56 µM	81.7 µg/mL (≈ 187 µM)
COc1ccc(O)c(C(C)(C)C)c1.COc1ccc(O)cc1C(C)(C)C [BUTYLATED HYDROXYANISOLE]	–	75.7 µg/mL	–	9.7 µg/mL	79.6 µg/mL	–	96.8 µg/mL
COc1cccc2c1C(=O)c1c(O)c3c(c(O)c1C2=O)C[C@@](O)(C(=O)CO)C[C@@H]3O[C@H]1C[C@H](N)[C@H](O)[C@H](C)O1 [DOXORUBICIN]	6.3 µM	–	10.9 µM	–	–	8.7 µM	–
